The target of test [1] is T1, CGRP receptor (Homo sapiens, UniProt O60894+Q16602). The experiment in a line: CGRP radioligand binding assay ([125I]-CGRP displacement, SK-N-MC homogenate). Further details: endogenous in cells; host or cells: SK-N-MC cells (homogenate/membrane pellet). The conditions noted are these: displacement of [125I]-CGRP, room temperature 2 h. The procedure, abridged: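 SK-N-MC cell homogenate (5 μg/well) was incubated 2 h at room temperature with [125I]-CGRP (diluted to 60 pM before addition) in 50 mM Tris-Cl pH 7.5, 5 mM MgCl2, 0.005% Triton X-100 plus protease inhibitors. Bound radioactivity was collected by filtration; 1 μM beta-CGRP defined non-specific binding. IC50 is 50% radioligand displacement.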
A general note: Loss of bound radioactivity is the signal in a displacement assay; it reports binding, not function.

Test [2] deals with T1, CGRP receptor. Kind of test: Cyclic AMP functional antagonism assay in SK-N-MC cells. The conditions noted are these: inhibition of 0.3 nM CGRP-induced cyclic AMP formation, 15 min pre-incubation, read-out: cAMP Function IC50. Further details: SK—N-MC cells that endogenously express the human CGRP receptor; endogenous in cells; host or cells: SK-N-MC cells. In kind it is cell-based. As to the method: Cyclic AMP Functional Antagonism Assay. Antagonism of the compounds of invention was determined by measuring the formation of cyclic AMP (adenosine 3′5′-cyclic monophosphate) in SK—N-MC cells that endogenously express the human CGRP receptor. CGRP receptor complex is coupled with Gs protein and CGRP binding to this complex leads to the cyclic AMP production via Gs—dependent activation of an adenylate cyclase (Juaneda C et al., TiPS, 2000; 21:432-438; incorporated by reference herein). Consequently, CGRP receptor antagonists inhibit CGRP—induced cyclic AMP formation in SK—N-MC cells (Doods H et al., Br J Pharmacol, 2000; 129(3):420-423); incorporated by reference herein). For cyclic AMP measurements SK—N-MC cells were incubated with 0.3 nM CGRP alone or in the presence of various concentrations of the compounds of invention for 30 min at room temperature. Compounds of invention were pre-incubated with SK—N-MC cells for 15 min before the addition of CGRP to allow receptor occupancy (Edvinsson et al., Eur J Pharmacol, 2001, 415:39-44; incorporated by reference herein). Cyclic AMP was extracted using the lysis reagent and its concentration was determined by radioimmunoassay using RPA559 cAMP SPA Direct Screening Assay Kit (Amersham Pharmacia Biotech). IC50 values were calculated using Excel fit.

pIC50: −log10 of the molar value.

T1 sequence (Q16602 23-461): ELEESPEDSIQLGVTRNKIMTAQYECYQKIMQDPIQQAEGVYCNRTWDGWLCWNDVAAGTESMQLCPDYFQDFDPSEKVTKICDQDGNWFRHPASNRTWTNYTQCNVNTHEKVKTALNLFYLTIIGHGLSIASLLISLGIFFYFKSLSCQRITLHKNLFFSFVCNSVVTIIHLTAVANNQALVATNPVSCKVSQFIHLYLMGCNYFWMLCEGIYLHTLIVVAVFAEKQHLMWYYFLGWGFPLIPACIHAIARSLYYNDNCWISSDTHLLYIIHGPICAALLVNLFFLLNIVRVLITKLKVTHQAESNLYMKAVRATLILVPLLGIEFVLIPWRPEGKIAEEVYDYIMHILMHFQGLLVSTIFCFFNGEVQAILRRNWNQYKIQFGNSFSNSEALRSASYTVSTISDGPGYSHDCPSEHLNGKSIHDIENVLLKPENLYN
T1 sequence (O60894 27-148): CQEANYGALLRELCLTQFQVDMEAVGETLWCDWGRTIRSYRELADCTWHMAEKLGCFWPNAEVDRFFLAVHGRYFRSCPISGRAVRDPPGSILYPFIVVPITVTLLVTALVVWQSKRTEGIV

The pIC50 is the IC50 on a negative log10 scale, so that one unit is a factor of ten. Turning to `O=C(N[C@@H]1Cc2ccc3[nH]ncc3c2CN(Cc2ccccc2)C1=O)N1CCC(N2Cc3ccccc3NC2=O)CC1` [Example 1, 4-(2-Oxo-1,4-dihydro-2H-quinazolin-3-yl)-piperidine-1-carboxylic acid (9-benzyl-8-oxo-3,6,7,8,9,10-hexahydro-2,3,9-triaza-(R)-cyclohepta[e]inden-7-yl)-amide], the pIC50 in test [1] and in test [2] was 7.00 to 8.00 in each case.
Regarding `CC(C)(C)CN1C(=O)C(CC(=O)N2CCC(N3Cc4ccccc4NC3=O)CC2)Cc2cc3[nH]ncc3cc21` (centres unmarked) [Example 6, 5-Neopentyl-7-(2-oxo-2-(4-(2-oxo-1,2-dihydroquinazolin-3(4H)-yl)piperidin-1-yl)ethyl)-7,8-dihydro-1H-pyrazolo[3,4-g]quinolin-6(5H)-one], the pIC50 in test [1] and in test [2] was 7.00 to 8.00 throughout.
As to `C[C@@H](c1ccccc1)N1Cc2c(ccc3[nH]ncc23)C[C@@H](NC(=O)N2CCC(N3Cc4ccccc4NC3=O)CC2)C1=O` [Example 10, 4-(2-Oxo-1,4-dihydro-2H-quinazolin-3-yl)-piperidine-1-carboxylic acid [8-oxo-9-(1-(S)-phenyl-ethyl)-3,6,7,8,9,10-hexahydro-2,3,9-triaza-(R)-cyclohepta[e]inden-7-yl]-amide], the pIC50 in test [1] and in test [2] was 7.00 to 8.00 in each case.
`C[C@H](c1ccccc1)N1Cc2c(ccc3[nH]ncc23)C[C@@H](NC(=O)N2CCC(N3Cc4ccccc4NC3=O)CC2)C1=O` [Example 11, 4-(2-Oxo-1,4-dihydro-2H-quinazolin-3-yl)-piperidine-1-carboxylic acid [8-oxo-9-(1-(R)-phenyl-ethyl)-3,6,7,8,9,10-hexahydro-2,3,9-triaza-(R)-cyclohepta[e]inden-7-yl]-amide]: the pIC50 in test [1] and in test [2] was 7.00 to 8.00 throughout.
In the case of `O=C(N[C@@H]1Cc2cc(Cl)c3[nH]ncc3c2CN(Cc2ccccc2)C1=O)N1CCC(N2Cc3ccccc3NC2=O)CC1` [Example 12, 4-(2-Oxo-1,4-dihydro-2H-quinazolin-3-yl)-piperidine-1-carboxylic acid (9-benzyl-4-chloro-8-oxo-3,6,7,8,9,10-hexahydro-2,3,9-triaza-(R)-cyclohepta[e]inden-7-yl)-amide], the pIC50 in test [1] and in test [2] was 8.00 to 10.00 in each case.
With `CC(C)(C)CCN1Cc2c(ccc3[nH]ncc23)C[C@@H](NC(=O)N2CCC(N3Cc4ccccc4NC3=O)CC2)C1=O` [Example 16, 4-(2-Oxo-1,4-dihydro-2H-quinazolin-3-yl)-piperidine-1-carboxylic acid [9-(3,3-dimethyl-butyl)-8-oxo-3,6,7,8,9,10-hexahydro-2,3,9-triaza-(R)-cyclohepta[e]inden-7-yl]-amide], the pIC50 in test [1] and in test [2] was 8.00 to 10.00 in each case.
As to `CC(C)(C)CN1Cc2c(cc(Cl)c3[nH]ncc23)C[C@@H](NC(=O)N2CCC(N3Cc4ccccc4NC3=O)CC2)C1=O` [Example 20, 4-(2-Oxo-1,4-dihydro-2H-quinazolin-3-yl)-piperidine-1-carboxylic acid [4-chloro-9-(2,2-dimethyl-propyl)-8-oxo-3,6,7,8,9,10-hexahydro-2,3,9-triaza-(R)-cyclohepta[e]inden-7-yl]-amide], the negative logarithm of the IC50 (pIC50) in test [1] and in test [2] was 8.00 to 10.00 throughout.
Regarding `CC(C)(C)CN1Cc2c(cc(Cl)c3[nH]ncc23)C[C@@H](CC(=O)N2CCC(N3Cc4ccccc4NC3=O)CC2)C1=O` [Example 21, 4-Chloro-9-(2,2-dimethyl-propyl)-7-(S)-{2-oxo-2-[4-(2-oxo-1,4-dihydro-2H-quinazolin-3-yl)-piperidin-1-yl]-ethyl}-6,7,9,10-tetrahydro-3H-2,3,9-triaza-cyclohepta[e]inden-8-one], the pIC50 in test [1] and in test [2] was 8.00 to 10.00 in each case.
As for `CC(C)(C)CN1Cc2c(ccc3[nH]ncc23)CC(NC(=O)N2CCC(N3Cc4ccccc4NC3=O)CC2)C1=O` (centres unmarked) [Example 22, 4-(2-Oxo-1,4-dihydro-2H-quinazolin-3-yl)-piperidine-1-carboxylic acid [9-(2,2-dimethyl-propyl)-8-oxo-3,6,7,8,9,10-hexahydro-2,3,9-triaza-cyclohepta[e]inden-7-yl]-amide], the pIC50 in test [1] and in test [2] was 8.00 to 10.00 in each case.
For `CC(C)CN1Cc2c(ccc3[nH]ncc23)CC(NC(=O)N2CCC(N3Cc4ccccc4NC3=O)CC2)C1=O` (centres unmarked) [Example 24, 4-(2-Oxo-1,4-dihydro-2H-quinazolin-3-yl)-piperidine-1-carboxylic acid (9-isobutyl-8-oxo-3,6,7,8,9,10-hexahydro-2,3,9-triaza-cyclohepta[e]inden-7-yl)-amide], the pIC50 in test [1] and in test [2] was 7.00 to 8.00 each time.
Consider `O=C(NC1Cc2ccc3[nH]ncc3c2CN(Cc2ccncc2)C1=O)N1CCC(N2Cc3ccccc3NC2=O)CC1` (centres unmarked) [Example 28, 4-(2-Oxo-1,4-dihydro-2H-quinazolin-3-yl)-piperidine-1-carboxylic acid (8-oxo-9-pyridin-4-ylmethyl-3,6,7,8,9,10-hexahydro-2,3,9-triaza-cyclohepta[e]inden-7-yl)-amide], for which the pIC50 in test [1] and in test [2] was 7.00 to 8.00 in each case.
`Cc1cc2c(c3cn[nH]c13)CN(C)C(=O)C(NC(=O)N1CCC(N3Cc4ccccc4NC3=O)CC1)C2` (centres unmarked) [Example 30, 4-(2-Oxo-1,4-dihydro-2H-quinazolin-3-yl)-piperidine-1-carboxylic acid (4,9-dimethyl-8-oxo-3,6,7,8,9,10-hexahydro-2,3,9-triaza-cyclohepta[e]inden-7-yl)-amide]: the pIC50 in test [1] and in test [2] was 7.00 to 8.00 each time.
On to `O=C(N[C@@H]1Cc2cc3cn[nH]c3cc2CN(Cc2ccccc2)C1=O)N1CCC(N2Cc3ccccc3NC2=O)CC1` [Example 37, (R)-N-(8-Benzyl-7-oxo-1,5,6,7,8,9-hexahydroazepino[4,3-f]indazol-6-yl)-4-(2-oxo-1,2-dihydroquinazolin-3(4H)-yl)piperidine-1-carboxamide], for which the pIC50 was 8.00 to 10.00 in test [1] and 7.00 to 8.00 in test [2].
In test [1], `C=C(C)c1cc2c(c3cn[nH]c13)CN(CC(F)(F)F)C(=O)[C@H](CC(=O)N1CCC(c3cc4cccc(F)c4[nH]c3=O)CC1)C2` [Example 109, (S)-7-(2-(4-(8-fluoro-2-oxo-1,2-dihydroquinolin-3-yl)piperidin-1-yl)-2-oxoethyl)-4-(prop-1-en-2-yl)-9-(2,2,2-trifluoroethyl)-6,7,9,10-tetrahydroazepino[3,4-e]indazol-8(3H)-one] showed a pIC50 of 6.00 to 7.00.
Take `O=C(C[C@@H]1Cc2cc(Br)c3[nH]ncc3c2CN(CC2CC2)C1=O)N1CCC(c2cc3cccc(F)c3[nH]c2=O)CC1` [Example 112, (S)-4-bromo-9-(cyclopropylmethyl)-7-(2-(4-(8-fluoro-2-oxo-1,2-dihydroquinolin-3-yl)piperidin-1-yl)-2-oxoethyl)-6,7,9,10-tetrahydroazepino[3,4-e]indazol-8(3H)-one]: the pIC50 in test [1] was 7.00 to 8.00.
On the same count and under the same terms, for `COCCN1Cc2c(cc(Br)c3[nH]ncc23)C[C@@H](CC(=O)N2CCC(c3cc4ccccc4[nH]c3=O)CC2)C1=O` [Example 113, (S)-4-bromo-9-(2-methoxyethyl)-7-(2-oxo-2-(4-(2-oxo-1,2-dihydroquinolin-3-yl)piperidin-1-yl)ethyl)-6,7,9,10-tetrahydroazepino[3,4-e]indazol-8(3H)-one] the value was 8.00 to 10.00.
Same read-out and setting: for `CC(C)(C)CN1Cc2c(cc(Cl)c3[nH]ncc23)C[C@@H](CC(=O)N2CCC(c3cc4ccc(Cl)cc4[nH]c3=O)CC2)C1=O` [Example 116] the value was 8.00 to 10.00; for `CC(C)(C)CN1Cc2c(cc(Cl)c3[nH]ncc23)C[C@@H](CC(=O)N2CCC(c3cc4cccc(Cl)c4[nH]c3=O)CC2)C1=O` [Example 117], 6.00 to 7.00.
The same measure, in the same setting: in the case of `CC(C)(C)CN1Cc2c(cc(Cl)c3[nH]ncc23)C[C@@H](CC(=O)N2CCC(c3cc4c(F)cccc4[nH]c3=O)CC2)C1=O` [Example 118] it was 7.00 to 8.00.
In turn, `CC(C)(C)CN1Cc2c(cc(Cl)c3[nH]ncc23)C[C@@H](CC(=O)N2CCC(c3cc4ccc(F)nc4[nH]c3=O)CC2)C1=O` [Example 119] showed a pIC50 in test [1] of less than 6.00.
The same measure, in the same setting: in the case of `CC(C)(C)CN1Cc2c(cc(Cl)c3[nH]ncc23)C[C@@H](CC(=O)N2CCC(c3cc4ccc(F)cc4[nH]c3=O)CC2)C1=O` [Example 120] it was 8.00 to 10.00.
Take “(7S)-9-Benzyl-7-(2-oxo-2-(4-(2-oxo-1,2,3,4-tetrahydroquinolin-3-yl)piperazin-1-yl)ethyl)-6,7,9,10-tetrahydroazepino[3,4-e]indazol-8(3H)-one [Example 58]”: in test [1], the pIC50 was 6.00 to 7.00.

(Values after patent US7384931B2, “Constrained compounds as CGRP-receptor antagonists” (Bristol-Myers Squibb Company, priority 2004, dated 2008).)
